# Patent publication US12358892B2, “Metalloenzyme inhibitors for treating cancers, Alzheimer's disease, hemochromatosis, and other disorders” (Miralogx LLC, priority 2020, dated 2025)
# “Also recorded” adds a separate entry of the source.
# What was measured:
# [1] = system: fibroblasts; test: BioMAP proliferation readout, fibroblasts; format: cell-based, human; details: 100 μM
# Excerpt: The X-axis lists the quantitative protein-based biomarker readouts measured in each system. The Y-axis represents a log-transformed ratio of the biomarker readouts for the drug-treated sample (n=1) over vehicle controls (n≥6). The grey region around the Y-axis represents the 95% significance envelope generated from historical vehicle controls. Biomarker activities are annotated when two or more consecutive concentrations change in the same direction relative to vehicle controls, are outside of the significance envelope, and have at least one concentration with an effect size >20% (|log 10 ratio|>0.1). Biomarker key activities are described as modulated if these activities increase in some systems, but decrease in others. […] As summarized in Table 2 below, the compound was active with 35 annotated readouts. […]
# Human primary cells in BioMAP® systems are used at early passage (passage 4 or earlier) to minimize adaptation to cell culture conditions and preserve physiological signaling responses. […] Test agents prepared in either DMSO (small molecules; final concentration ≤0.1%) or PBS (biologics) are added at the indicated concentrations 1-hr before stimulation, and remain in culture for 24-hrs or as otherwise indicated (48-hrs, MyoF system; 72-hrs, BT system (soluble readouts); 168-hrs, BT system (secreted IgG)). […]
# [2] = system: NCI-H1299 NSCLC cell line; test: BioMAP Oncology NSCLC panel (StroNSCLC and VascNSCLC systems); format: cell-based, human
# Excerpt: The BioMAP® oncology system used in this Example is a coculture of primary human immune cells with primary tissue cells in the presence of the NSCL cells. In particular, The BioMAP® Oncology NSCLC panel models the interactions between the immune-stromal (fibroblasts) and immune-vascular (endothelial cells) environments in the context of non-small lung cancer (NCI-H1299 NSCLC cell line). The interactions between tumor cells, stimulated immune cells (peripheral blood mononuclear cells [PBMC]), and the host stromal network (human neonatal dermal fibroblasts [HDFn]) are captured in the StroNSCLC system. In parallel, the VascNSCLC system captures the interactions between tumor cells, activated immune cells and the vascular tissue (human umbilical vein endothelial cells [HUVEC]). The biomarkers selected for the BioMAP® Non-small Cell Lung Cancer (NSCLC) panel inform on activities related to inflammation, immune-function, tissue remodeling and metastasis in the context of a host tumor-microenvironment.
# A signature BioMAP® profile that is reflective of the changes in protein biomarker readouts within an individual system is generated for each test agent. Biomarker readouts selected for therapeutic and biological relevance are predictive for disease outcomes or specific drug effects, and have been validated using agents with known clinical efficacy. Each readout is measured quantitatively by immune-based receptors, cytokines, chemokines, matrix molecules and enzymes. In total, the 42 biomarker readouts in the NSCLC panel capture the biological changes that occur within the physiological context of each particular BioMAP® system.
# The BioMAP® Non-small Cell Lung Cancer (NSCLC) panel allows a focused in vitro evaluation of the impact of an agent in a model system that includes the hierarchical signaling networks that exist between interacting pathways and cells in a disease relevant setting. To represent the changes that are occurring in these complex systems, biomarker readouts with the ability to integrate and distinguish changes in different regulatory networks have been selected.
# Data analysis of the results was performed as described in detail above in Example 3.1. Briefly, biomarker activities are annotated when at least one concentration of the test agent is outside of the significance envelope with an effect size >20% compared to the vehicle control (|log 10 ratio|>0.1) and a p-value <0.01. Cytotoxic conditions are noted when total protein levels decrease by more than 50% (log 10 ratio of SRB <−0.3). Biomarker key activities are described as modulated if these activities increase in some systems, but decrease in others.
# [3] = 7.4 μM, 22 μM, 67 μM, Angiogenesis related activities
# [4] = 7.4 μM, 22 μM, 67 μM, Immune-related activities
# [5] = 7.4 μM, 22 μM, 67 μM, Inflammation related activities
# [6] = 7.4 μM, 22 μM, 67 μM, Matrix remodeling activities
smiles,measurement,setting,value
"C1=NC(c2cncc(C3CCC=N3)c2)CC1 (centres unmarked) [3,5-bis(3,4-dihydro-2H-pyrrol-2-yl)pyridine]",antiproliferative effect on fibroblasts,[1],antiproliferative
same,Decreased activity: uPA,[2]; [3],decreased and uPA
same,Increased activity: tPA,[2]; [3],increased and tPA
same,Decreased Activity: sIL-6,[2]; [4],decreased
same,Decreased activity: sGranB,[2]; [4],decreased; also recorded: sGranB
same,Decreased activity: sIFNγ,[2]; [4],decreased; also recorded: SIFNG
same,Decreased activity: sIL-2,[2]; [4],decreased
same,Decreased activity: sIL-4,[2]; [4],decreased; also recorded: SIL-4
same,Decreased activity: sIL-10,[2]; [4],decreased
same,Decreased activity: sIL-13,[2]; [4],decreased
same,Decreased activity: sIL-17A,[2]; [4],decreased; also recorded: SIL-17A
same,Decreased Activity: sTNFα,[2]; [5],decreased; also recorded: STNFa
same,Decreased activity: VCAM-1,[2]; [5],decreased; also recorded: VCAM-1
same,Decreased activity: sMDC,[2]; [5],decreased
same,Increased activity: IP-10,[2]; [5],increased; also recorded: IP-10
same,Increased activity: Collagen III,[2]; [6],increased; also recorded: Col-III
same,Increased activity: EGFR,[2]; [6],increased and EGFR
same,Increased activity: HGF,[2]; [6],increased and HGF
same,annotated readouts,[2]; BioMAP Oncology NSCLC Panel,21
same,annotated activities,[2]; StroNSCLC system,16
same,annotated activities,[2]; VascNSCLC system,five
same,cytotoxicity,[2]; at 200 μM,cytotoxic
same,cytotoxicity in the VascNSCLC system,"[2]; at 200 μM, VascNSCLC system",detectable cytotoxicity
